{"source": "patent US20150335596A1", "about": "“1-(2-FLUOROBIPHENYL-4-YL)-CYCLOPROPANECARBOXYLIC ACID DERIVATIVES FOR THE TREATMENT OF DOWN'S SYNDROME” (CHIESI FARMACEUTICI S.P.A., priority 2014, published 2015)", "assay_type_in_all_cases": "in vivo, mouse", "key": {"[1]": {"tested_on": "total APP/Aβ40/Aβ42 peptides", "assay": "Intraneuronal APP immunohistochemistry and microdensitometry in cerebral cortex", "conditions": "Ts65Dn mice treated vs control transgenic animals", "description": "Intraneuronal APP was measured by immunohistochemistry and computerized microdensitometry (Chemicon clone 22C11) in cerebral cortex;"}, "[2]": {"tested_on": "Ionized calcium binding adaptor molecule 1 (Iba1)", "assay": "Activated microglia, Iba1 immunoreactivity in hippocampus", "conditions": "CA1/2 hippocampus, aged Ts65Dn mice, diet 375 ppm, vs Ts65Dn on standard diet", "method": "(§1) The study was performed on Ts65Dn male, using the administration of CHF 5074 in the diet (375 ppm, equivalent to approximately 60 mg/kg/day).\n(§2) The treatment started at 2 to 3 months of age and it was chronically administered in the diet for 15 months, until 19 months of age.\n(§3) Treatment groups were: • Wild-type mice receiving standard diet (N=20) • Wild-type mice receiving CHF 5074-medicated diet (375 ppm, approximately 60 mg/kg/day) (N=20) • Ts65Dn mice receiving standard diet (N=20) • Ts65Dn mice receiving CHF 5074-mediacted diet (375 ppm, approximately 60 mg/kg/day) (N=20)\n(§4) Brain morphology was assessed by immunohistochemistry, immunofluorescence and quantitative morphometry and microdensitometry according to Imbimbo B P et al., J Alzheimer Dis 2010; 20:159-173; Sivilia S et al., BMC Neurosci 2013; 14: 44; and Guidi S et al., Brain 2014; 137: 380-401, all of which are incorporated herein by reference in their entireties. The following proteins were investigated:\nIonized calcium binding adaptor molecule 1 (Iba1), as microglia marker in hippocampus;"}, "Aβ40 and Aβ42 [3]": {"tested_on": "Aβ40 and Aβ42", "assay": "Brain (cerebral cortex) Aβ40 and Aβ42 by ELISA", "conditions": "after 15 months of treatment (19 months of age)", "method": "as §1, §2, §3\n(§5) Aβ40 and Aβ42 were measured by ELISA in plasma and brain extracts (IBL kit for mouse Aβ40/Aβ42);\nFIGS. 7 A, B, C, and D illustrates the brain (cerebral cortex) levels of Aβ40 and Aβ42 in animals after 15 months of treatment (19 months of age). Results are expressed as pmol/gr proteins (panels A and B), and as fmol/g wet tissue (panels C and D). There was a substantial increase in Aβ40 and Aβ42 brain levels in Ts65Dn mice compared to wild-type animals."}, "Aβ40 and Aβ42 [4]": {"tested_on": "Aβ40 and Aβ42", "assay": "Plasma Aβ40 and Aβ42 by ELISA", "method": "as §1, §2, §3, §5\nFIGS. 6 A and B illustrates the plasma levels of Aβ40 and Aβ42 peptides in animals after 15 months of treatment (19 months of age). There was a substantial increase in Aβ40 and Aβ42 plasma levels in Ts65Dn mice compared to wild-type animals."}, "[5]": {"tested_on": "Glial fibrillary acidic protein (GFAP)", "assay": "Reactive astrocytes, GFAP immunoreactivity in hippocampus", "conditions": "CA1/2 hippocampus, aged Ts65Dn mice, diet 375 ppm, vs Ts65Dn on standard diet", "method": "as §1, §2, §3, §4\nGlial fibrillary acidic protein (GFAP) as astrocyte marker in hippocampus;"}, "APP mRNA": {"tested_on": "APP mRNA", "assay": "APP mRNA expression by real-time PCR in hippocampus and basal ganglia", "conditions": "wild-type animals, medicated diet for 15 months", "description": "Molecular biology markers were measured in hippocampus and basal ganglia by real-time PCR, according to Massella A et al., BMC Neuroscience 2012; 13: 12; and D'Intino G et al., J Neuroendocrinol 2011; 23: 778-790, both of which are incorporated herein by reference in their entireties."}, "[6]": {"tested_on": "Amyloid precursor protein intracellular domain (AICD)", "assay": "AICD immunoreactivity in CA1/2 hippocampal neurons", "conditions": "CA1/2 hippocampal regions, Ts65Dn mice, p<0.0001", "description": "Amyloid precursor protein intracellular domain (AICD) (cleavage sites C83 and C99) in hippocampus.\nQuantification was carried out by counting the percentage of neurons having AICD-positivity."}, "Ts65Dn mice [7]": {"tested_on": "Ts65Dn mice", "assay": "Y-maze test, spatial learning and memory", "method": "as §1, §2, §3\n(§6) Animals were provided by Jackson Laboratory, Bar Harbor, Me., USA) in small cohorts. Ts65Dn segmental male trisomic mice were used. Ts65Dn mice were compared with diploid controls from the same litters.\nSpatial learning and memory were assessed with the Y-maze test according to Stewart S et al., J Alzheimer Dis 2011; 26: 105-126, which is incorporated herein by reference in its entirety.\nAnimals were tested in a single trial Y maze task, to measure arm entries (A) and alternation (B). The percentage of spontaneous alternations is defined as (total alternations/total arm entries-2)×100."}, "[8]": {"tested_on": "Vesicular GABA transporter (VGAT)", "assay": "VGAT immunostaining in hippocampus", "conditions": "CA1/2 hippocampus, Ts65Dn mice, after 15 months of treatment", "method": "as §1, §2, §3, §4\nVesicular GABA transporter (VGAT), as marker of GABAergic synapses in hippocampus;\n(§7) FIG. 10 illustrates main markers of synaptic transmission in the CA1/2 regions of the hippocampus after 15 months of treatment (19 months of age). […] Panel B reports the variation of immunostaining for the glutamate transporter VGLUT1 with a substantial decrease in Ts65Dn mice compared to wild-type animals. […]"}, "Synaptophysin": {"tested_on": "Synaptophysin", "assay": "Synaptophysin immunostaining in hippocampus", "conditions": "CA1/2 hippocampus, after 15 months of treatment, between experimental groups", "method": "as §1, §2, §3, §4\nSynaptophysin. It is a pre-synaptic vesicle membrane protein known to mediate vesicle release in hippocampus;\nas §7"}, "Ts65Dn mice [9]": {"tested_on": "Ts65Dn mice", "assay": "CatWalk computerized gait analysis, locomotion", "method": "as §1, §2, §3, §6\nLocomotion deficits were assessed with the CatWalk technology (gait analysis) according to Faizi M et al., Neurobiol Dis 2011; 43: 397-413, which is incorporated herein by reference in its entirety.\nThe print area of front and hind paws is presented, as corrected according to the individual animal body weight. […] CHF 5074 treatment normalized this gait parameter."}, "[10]": {"conditions": "wild-type and Ts65Dn mice, after 15 months of treatment (19 months of age)"}}, "data": [{"smiles": "O=C(O)C1(c2ccc(-c3ccc(Cl)c(Cl)c3)c(F)c2)CC1", "note": "[CHF 5074, 1-(3′,4′-dichloro-2-fluorobiphenyl-4-yl)cyclopropanecarboxylic acid]", "values": [{"measurement": "intracellular immunoreactivity of total APP/Aβ40/Aβ42 peptides in cortical neurons", "setting": "[1]", "result": "significant decrease"}, {"measurement": "Iba1-immunoreactivity (activated microglia)", "setting": "[2]", "result": "substantial reduction"}, {"measurement": "brain Aβ40 levels", "setting": "Aβ40 and Aβ42 [3]", "result": "did not modify significantly"}, {"measurement": "brain Aβ42 levels", "setting": "Aβ40 and Aβ42 [3]", "result": "did not modify significantly"}, {"measurement": "plasma level of Aβ40", "setting": "Aβ40 and Aβ42 [4]; [10]", "result": "further increased"}, {"measurement": "plasma level of Aβ42", "setting": "Aβ40 and Aβ42 [4]; [10]", "result": "further increased"}, {"measurement": "significance of the increase in plasma Aβ42", "setting": "Aβ40 and Aβ42 [4]; wild-type animals, after 15 months of treatment", "result": "significant"}, {"measurement": "GFAP-immunoreactivity (reactive astrocytes)", "setting": "[5]", "result": "substantial reduction"}, {"measurement": "APP mRNA levels", "setting": "APP mRNA", "result": "slightly but significantly increased"}, {"measurement": "increase in percentage of AICD-positive neurons", "setting": "[6]", "result": "significantly attenuated"}, {"measurement": "spontaneous alternation in Y maze (spatial memory)", "setting": "Ts65Dn mice [7]; CHF 5074 in diet 375 ppm (approx. 60 mg/kg/day), tested after 6, 9 and 15 months of treatment", "result": "progressively normalized"}, {"measurement": "spontaneous alternation in Y maze compared to wild-type mice", "setting": "Ts65Dn mice [7]; diet 375 ppm, after 15 months of treatment", "result": "not significantly different"}, {"measurement": "spatial memory deficit (study summary)", "setting": "Ts65Dn mice [7]; prolonged oral treatment", "result": "attenuated"}, {"measurement": "increase of immunostaining for the GABA transporter VGAT", "setting": "[8]", "result": "completely reversed"}, {"measurement": "synaptophysin levels", "setting": "Synaptophysin", "result": "no significant differences"}, {"measurement": "hind paw print area (gait parameter, corrected for body weight)", "setting": "Ts65Dn mice [9]; diet 375 ppm, after 15 months of treatment (19 months of age)", "result": "normalized"}, {"measurement": "locomotion deficit (study summary)", "setting": "Ts65Dn mice [9]; prolonged oral treatment", "result": "completely reversed"}]}]}
